According to US7951815B2, “Substituted 1,4,8-triazaspiro [4,5]decan-2-one compounds” (Gruenenthal GmbH, priority 2004, dated 2011):
Where a name gives a salt, the structure may show the parent alone.

molecular target: T1, 5-HT transporter (Rattus norvegicus, UniProt P31652); assay: Inhibition of 5-HT uptake in rat brain synaptosomes; format: biochemical; details: characteristic data of the 5-HT transporter, rat synaptosomes
T1 construct: synaptosomes of rat brain areas are freshly isolated; from tissue; host or cells: rat brain synaptosomes (P2 fraction) from marrow and pons
T1 sequence (P31652 whole entry): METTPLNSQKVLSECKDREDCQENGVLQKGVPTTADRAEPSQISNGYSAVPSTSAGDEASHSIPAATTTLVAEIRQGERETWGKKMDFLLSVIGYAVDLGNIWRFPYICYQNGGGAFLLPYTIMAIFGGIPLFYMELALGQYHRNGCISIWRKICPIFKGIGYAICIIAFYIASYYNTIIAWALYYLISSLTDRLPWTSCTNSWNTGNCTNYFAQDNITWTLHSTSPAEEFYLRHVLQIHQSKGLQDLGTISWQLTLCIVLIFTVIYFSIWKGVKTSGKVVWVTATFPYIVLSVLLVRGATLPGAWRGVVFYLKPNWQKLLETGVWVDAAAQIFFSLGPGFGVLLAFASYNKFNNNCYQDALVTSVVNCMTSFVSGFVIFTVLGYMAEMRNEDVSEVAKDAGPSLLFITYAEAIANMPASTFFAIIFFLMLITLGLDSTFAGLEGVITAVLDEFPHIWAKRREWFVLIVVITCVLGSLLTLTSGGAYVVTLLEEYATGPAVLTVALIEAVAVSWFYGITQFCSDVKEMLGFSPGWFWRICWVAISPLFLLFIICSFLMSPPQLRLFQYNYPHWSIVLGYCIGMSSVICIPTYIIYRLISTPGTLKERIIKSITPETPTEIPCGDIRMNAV

Compound | Km
NCCc1c[nH]c2ccc(O)cc12 [Example 5-HT, reference compound] | 0.084 ± 0.011 µM

same assay, conditions: read-out: Uptake 5-HT, % inhibition; Table II; rat, 1 μM

Compound | inhibition at 1 µM
CCC(CC)C(=O)N1CCC2(CC1)NC(CCSC)C(=O)N2Cc1ccccc1 (stereo not drawn) [Example 33, 1-benzyl-8-(2-ethylbutyryl)-3-(2-methylsulfanylethyl)-1,4,8-triazaspiro[4,5]decan-2-one hydrochloride] | 49%

same assay, conditions: read-out: Uptake 5-HT, % inhibition; Table III; rat, 1 μM

Compound | inhibition at 1 µM
COc1ccc(C(=O)N2CCC3(CC2)NC(CCSC)C(=O)N3C)c(OC)c1 (stereo not drawn) [Example 67, 8-(2,4-Dimethoxybenzoyl)-1-methyl-3-(2-methylsulfanylethyl)-1,4,8-triazaspiro[4,5]decan-2-one] | 46%
CCC(CC)C(=O)N1CCC2(CC1)NCC(=O)N2Cc1ccccc1C#N [Example 68, 2-[8-(2-Ethylbutyryl)-2-oxo-1,4,8-triazaspiro[4,5]dec-1-ylmethyl]benzonitrile] | 75%
CCOC(=O)CC(=O)N1CCC2(CC1)NCC(=O)N2CCOc1ccccc1 [Example 74, Ethyl 3-oxo-3-[2-oxo-1-(2-phenoxyethyl)-1,4,8-triazaspiro[4,5]dec-8-yl]propionate] | 47%
C#CCN1C(=O)C(Cc2ccccc2)NC12CCN(C(=O)COC)CC2 (stereo not drawn) [Example 81, 3-Benzyl-8-(2-methoxyacetyl)-1-prop-2-ynyl-1,4,8-triazaspiro[4,5]decan-2-one] | 43%
O=C1NC2(CCN(C(=O)c3ccccc3Cl)CC2)NC1Cc1ccccc1 (stereo not drawn) [Example 84, 3-Benzyl-8-(2-chlorobenzoyl)-1,4,8-triazaspiro[4,5]decan-2-one] | 64%
CC(C)=CCN1C(=O)C(C(C)C)NC12CCN(C(=O)c1ccncc1)CC2 (stereo not drawn) [Example 87, 3-Isopropyl-1-(3-methylbut-2-enyl)-8-(pyridin-4-carbonyl)-1,4,8-triazaspiro[4,5]decan-2-one] | 56%
CC(C)(C)CC(=O)N1CCC2(CC1)NC(=O)C(Cc1ccccc1)N2 (stereo not drawn) [Example 110, 3-Benzyl-8-(3,3-dimethylbutyryl)-1,4,8-triazaspiro[4,5]decan-2-one] | 33%
COCCOCC(=O)N1CCC2(CC1)NC(CCSC)C(=O)N2Cc1ccccc1C#N (stereo not drawn) [Example 114, 2-[8-[2-(2-Methoxyethoxy)acetyl]-3-(2-methylsulfanylethyl)-2-oxo-1,4,8-triazaspiro[4,5]dec-1-ylmethyl]benzonitrile] | 53%
Cc1cc(C(=O)N2CCC3(CC2)NC(=O)C(C(C)C)N3)ccc1Br (stereo not drawn) [Example 130, 8-(4-Bromo-3-methylbenzoyl)-3-isopropyl-1,4,8-triazaspiro[4,5]decan-2-one] | 32%
CSc1ncccc1C(=O)N1CCC2(CC1)NC(Cc1ccccc1)C(=O)N2C (stereo not drawn) [Example 143, 3-Benzyl-1-methyl-8-(2-methylsulfanylpyridin-3-carbonyl)-1,4,8-triazaspiro[4,5]decan-2-one] | 42%
CCCCN1C(=O)C(CCSC)NC12CCN(C(=O)c1ccc(OC)cc1)CC2 (stereo not drawn) [Example 144, 1-Butyl-8-(4-methoxybenzoyl)-3-(2-methylsulfanylethyl)-1,4,8-triazaspiro[4,5]decan-2-one] | 51%
CSCCC1NC2(CCN(C(=O)c3ccco3)CC2)N(Cc2ccc(F)cc2)C1=O (stereo not drawn) [Example 147, 1-(4-Fluorobenzyl)-8-(furan-2-carbonyl)-3-(2-methylsulfanylethyl)-1,4,8-triazaspiro[4,5]decan-2-one] | 45%
C#CCN1C(=O)C(CCSC)NC12CCN(C(=O)C1CCC1)CC2 (stereo not drawn) [Example 152, 8-Cyclobutanecarbonyl-3-(2-methylsulfanylethyl)-1-prop-2-ynyl-1,4,8-triazaspiro[4,5]decan-2-one] | 56%
CCCCN1C(=O)C(Cc2ccccc2)NC12CCN(C(=O)c1ccco1)CC2 (stereo not drawn) [Example 153, 3-Benzyl-1-butyl-8-(furan-2-carbonyl)-1,4,8-triazaspiro[4,5]decan-2-one] | 63%
CCCCN1C(=O)C(Cc2ccccc2)NC12CCN(C(=O)c1cc(C(F)(F)F)ccc1C(F)(F)F)CC2 (stereo not drawn) [Example 155, 3-Benzyl-8-(2,5-bis-trifluoromethylbenzoyl)-1-butyl-1,4,8-triazaspiro[4,5]decan-2-one] | 74%
CC(C)C1NC2(CCN(C(=O)c3cccnc3Cl)CC2)N(Cc2ccccc2)C1=O (stereo not drawn) [Example 157, 1-Benzyl-8-(2-chloropyridin-3-carbonyl)-3-isopropyl-1,4,8-triazaspiro[4,5]decan-2-one] | 64%
CCCCN1C(=O)C(CCSC)NC12CCN(C(=O)COCc1ccccc1)CC2 (stereo not drawn) [Example 159, 8-(2-Benzyloxyacetyl)-1-butyl-3-(2-methylsulfanylethyl)-1,4,8-triazaspiro[4,5]decan-2-one] | 40%
CCCCN1C(=O)C(CCSC)NC12CCN(C(=O)CCCOc1ccccc1)CC2 (stereo not drawn) [Example 161, 1-Butyl-3-(2-methylsulfanylethyl)-8-(4-phenoxybutyryl)-1,4,8-triazaspiro[4,5]decan-2-one] | 39%
CSCCC1NC2(CCN(C(=O)c3cccnc3Oc3ccccc3)CC2)N(Cc2ccccc2F)C1=O (stereo not drawn) [Example 163, 1-(2-Fluorobenzyl)-3-(2-methylsulfanylethyl)-8-(2-phenoxypyridin-3-carbonyl)-1,4,8-triazaspiro[4,5]decan-2-one] | 71%

Compound | inhibition at 1 µM
CSCCC1NC2(CCN(C(=O)c3ccccn3)CC2)N(Cc2ccccc2F)C1=O (stereo not drawn) [Example 170, 1-(2-Fluorobenzyl)-3-(2-methylsulfanylethyl)-8-(pyridin-2-carbonyl)-1,4,8-triazaspiro[4,5]decan-2-one] | 46%
CSCCC1NC2(CCN(C(=O)c3cccnc3Oc3ccccc3)CC2)N(Cc2ccccc2)C1=O (stereo not drawn) [Example 171, 1-Benzyl-3-(2-methylsulfanylethyl)-8-(2-phenoxypyridin-3-carbonyl)-1,4,8-triazaspiro[4,5]decan-2-one] | 62%
Cc1nc(C(F)(F)F)ccc1C(=O)N1CCC2(CC1)NC(C(C)C)C(=O)N2Cc1ccccc1 (stereo not drawn) [Example 178, 1-Benzyl-3-isopropyl-8-(2-methyl-6-trifluoromethylpyridin-3-carbonyl)-1,4,8-triazaspiro[4,5]decan-2-one] | 49%
C#CCN1C(=O)C(Cc2ccccc2)NC12CCN(C(=O)c1ccco1)CC2 (stereo not drawn) [Example 186, 3-Benzyl-8-(furan-2-carbonyl)-1-prop-2-ynyl-1,4,8-triazaspiro[4,5]decan-2-one] | 32%
CSCCC1NC2(CCN(C(=O)c3cccc4ccccc34)CC2)N(C)C1=O (stereo not drawn) [Example 187, 1-Methyl-3-(2-methylsulfanylethyl)-8-(naphthalin-1-carbonyl)-1,4,8-triazaspiro[4,5]decan-2-one] | 47%
CCCCN1C(=O)C(Cc2ccccc2)NC12CCN(C(=O)COC)CC2 (stereo not drawn) [Example 190, 3-Benzyl-1-butyl-8-(2-methoxyacetyl)-1,4,8-triazaspiro[4,5]decan-2-one] | 43%
CN1C(=O)C(Cc2ccccc2)NC12CCN(C(=O)c1ccc(C(F)(F)F)c(F)c1)CC2 (stereo not drawn) [Example 191, 3-Benzyl-8-(3-fluoro-4-trifluoromethylbenzoyl)-1-methyl-1,4,8-triazaspiro[4,5]decan-2-one] | 30%
CC(C)C1NC2(CCN(C(=O)c3cccc(SC(F)F)c3)CC2)N(Cc2ccccc2)C1=O (stereo not drawn) [Example 192, 1-Benzyl-8-(3-difluoromethylsulfanylbenzoyl)-3-isopropyl-1,4,8-triazaspiro[4,5]decan-2-one] | 53%
COC(=O)c1ccc(CN2C(=O)C(C(C)C)NC23CCN(C(=O)c2cccnc2SC)CC3)cc1 (stereo not drawn) [Example 194, Methyl 4-[3-isopropyl-8-(2-methylsulfanylpyridin-3-carbonyl)-2-oxo-1,4,8-triazaspiro[4,5]dec-1-ylmethyl]benzoate] | 32%
CCCCN1C(=O)C(Cc2ccccc2)NC12CCN(C(=O)c1ccccn1)CC2 (stereo not drawn) [Example 202, 3-Benzyl-1-butyl-8-(pyridin-2-carbonyl)-1,4,8-triazaspiro[4,5]decan-2-one] | 56%
CCCCN1C(=O)C(CCSC)NC12CCN(C(=O)C1CCCCC1)CC2 (stereo not drawn) [Example 206, 1-Butyl-8-cyclohexanecarbonyl-3-(2-methylsulfanylethyl)-1,4,8-triazaspiro[4,5]decan-2-one] | 55%
Cc1nnsc1C(=O)N1CCC2(CC1)NC(C(C)C)C(=O)N2Cc1ccccc1 (stereo not drawn) [Example 216, 1-Benzyl-3-isopropyl-8-(4-methyl[1,2,3]thiadiazole-5-carbonyl)-1,4,8-triazaspiro[4,5]decan-2-one] | 55%
CCCCN1C(=O)C(CCSC)NC12CCN(C(=O)c1cc(C)oc1C)CC2 (stereo not drawn) [Example 219, 1-Butyl-8-(2,5-dimethylfuran-3-carbonyl)-3-(2-methylsulfanylethyl)-1,4,8-triazaspiro[4,5]decan-2-one] | 30%
C#CCN1C(=O)C(CCSC)NC12CCN(C(=O)CCCOc1ccccc1)CC2 (stereo not drawn) [Example 222, 3-(2-Methylsulfanylethyl)-8-(4-phenoxybutyryl)-1-prop-2-ynyl-1,4,8-triazaspiro[4,5]decan-2-one] | 60%
Cc1ccc(Cl)c(C(=O)N2CCC3(CC2)NC(Cc2ccccc2)C(=O)N3C)c1F (stereo not drawn) [Example 224, 3-Benzyl-8-(6-chloro-2-fluoro-3-methylbenzoyl)-1-methyl-1,4,8-triazaspiro[4,5]decan-2-one] | 30%
CC(C)C1NC2(CCN(C(=O)c3ccco3)CC2)N(Cc2ccccc2)C1=O (stereo not drawn) [Example 228, 1-Benzyl-8-(furan-2-carbonyl)-3-isopropyl-1,4,8-triazaspiro[4,5]decan-2-one] | 32%
CCCCN1C(=O)C(CCSC)NC12CCN(C(=O)c1cc(OC)cc(OC)c1)CC2 (stereo not drawn) [Example 229, 1-Butyl-8-(3,5-dimethoxybenzoyl)-3-(2-methylsulfanylethyl)-1,4,8-triazaspiro[4,5]decan-2-one] | 36%
CSCCC1NC2(CCN(C(=O)c3c(F)ccc(C)c3F)CC2)N(C)C1=O (stereo not drawn) [Example 231, 8-(2,6-Difluoro-3-methylbenzoyl)-1-methyl-3-(2-methylsulfanylethyl)-1,4,8-triazaspiro[4,5]decan-2-one] | 31%
